Laboratory results as given in PMC11433870, “Neurotoxicity, Neuroprotection, In Vitro MAOA/MAOB Inhibitory Activity Assessment, Molecular Docking, and Permeability Assay Studies of Newly Synthesized Hydrazones Containing a Pyrrole Ring” (Molecules, 2024).
“And” between values parts separate entries of the source, which are not always exact repeats. Equal entries are not always repeated.

Key:
[1] = tested on: isolated rat brain synaptosomes; assay: 6-OHDA-induced neurotoxicity model: GSH level; assay type: cell-based; conditions: for preservation of GSH level: 50 µM in combination with 6-OHDA (150 µM), compared to the toxic agent
Procedure: (§1) Synaptosomes and mitochondria were obtained by multiple, subcellular fractionation using a Percoll gradient. The necessary brain homogenate was prepared and centrifuged at 1000× g for 5 min at +4 °C. After centrifugation, the supernatants were collected and centrifuged again at 1000× g for 5 min at +4 °C. The supernatants from the two centrifugations were mixed and distributed into four tubes. The tubes were centrifuged at 10,000× g for 20 min at +4 °C three times. The last two centrifugations were for purification of synaptosomes and mitochondria.
(§2) The isolation of the required fractions was based on the formation of a colloidal solution of silicon (Percoll), as per the procedure, including: 1. Preparation of a 90% stock solution of Percoll, followed by preparation of two Percoll solutions of different percentages: 16% and 10%. An amount of 4 mL of each of the prepared 16% and 10% Percoll solutions was placed in six test tubes. A 90% Percoll (7.5% Percoll) was added to the precipitate obtained from the previous step from the last centrifugation. The obtained mixtures in all 12 tubes were centrifuged for 20 min at 15,000× g +4 °C. After centrifugation, three layers are formed in the tubes. The bottom layer contains mitochondria, the top layer contains lipids, and the middle layer—at the 16% to 10% Percoll limit—contains synaptosomes. The respective layer from each tube is removed through a glass pasteurizer and collected into one. Buffer B + glucose is added to it. The mixture was centrifuged at 10,000× g for 20 min at +4 °C. Thus, the isolation buffer is exchanged with the incubation buffer. After centrifugation, the pellet where the synaptosomes are mixed and made up with buffer B + glucose.
(§3) Synaptosomes and mitochondria were incubated with the test substances at a concentration of 50 µM for 1 h.
Synaptosomes were incubated with 6-OHDA (150 μM) for 1 h.
(§4) After precipitation of the proteins with trichloroacetic acid, the thiol groups in the supernatant were determined by DTNB, which produced a yellow-colored compound that absorbs light at λ = 412 nm. After incubation, synaptosomes were centrifuged at 4000× g for 3 min. The supernatant was removed and the pellet taken for GSH determination. It was treated with 5% trichloroacetic acid, then left for 10 min on ice. It was centrifuged at 8000× g for 10 min (2 °C). The supernatant is taken for GSH determination and frozen at −20 °C. Immediately before measurement, the samples are neutralized with 5N NaOH [58].

[2] = tested on: isolated rat brain synaptosomes; assay: 6-OHDA-induced neurotoxicity model: synaptosomal viability; assay type: cell-based; conditions: toxic agent applied alone at 150 µM, compared to control (untreated synaptosomes)
Procedure: as §1
The isolation of the required fractions was based on the formation of a colloidal solution of silicon (Percoll), as per the procedure, including: 1. Preparation of a 90% stock solution of Percoll, followed by preparation of two Percoll solutions of different percentages: 16% and 10%. An amount of 4 mL of each of the prepared 16% and 10% Percoll solutions was placed in six test tubes. A 90% Percoll (7.5% Percoll) was added to the precipitate obtained from the previous step from the last centrifugation. The obtained mixtures in all 12 tubes were centrifuged for 20 min at 15,000× g +4 °C. […]
After 1 h incubation with the substances and toxic agent, synaptosomes were centrifuged on a microcentrifuge for 1 min at 15,000× g. […] After dissolution, the amount of formazan is measured spectrophotometrically at λ = 580 nm.

[3] = tested on: isolated rat brain microsomes; assay: Fe2+/AA-induced non-enzyme lipid peroxidation model: MDA production; assay type: cell-based; conditions: 50 µM in combination with Fe2+/AA, compared to the toxic agent
Procedure: (§5) The brain was homogenized in 9 volume parts of 0.1 M Tris buffer containing: 0.1 mM dithiothreitol, 0.1 mM phenylmethylsulfonyl fluoride, 0.2 mM EDTA, 1.15% KCl, and 20% (v/v) glycerol (pH 7.4). The resulting homogenate was centrifuged twice at 17,000× g for 30 min. The supernatants from the two centrifugations were pooled and centrifuged twice at 100,000× g for 1 h. The pellet was frozen in 0.1 M Tris buffer.
Non-enzyme-induced lipid peroxidation was induced with 20 μM ferrous sulfate solution and 0.5 mM ascorbic acid solution [62].
(§6) After completion of incubation of the microsomes with the substances and toxic agent, the reaction was stopped by the addition of 0.5 mL of 20% trichloroacetic acid, followed by 0.5 mL of 0.67% thiobarbituric acid. The ongoing reactions are associated with the formation of a colored complex between the malondialdehyde formed and thiobarbituric acid. The determination of MDA was spectrophotometric at 535 nm. A molar extinction coefficient of […] was used for the calculation.

[4] = tested on: isolated rat brain microsomes; assay: Neurotoxicity: MDA production in brain microsomes, substances applied alone; assay type: cell-based; conditions: 50 µM applied alone, compared to control
Procedure: as §5, §6

[5] = tested on: isolated rat brain synaptosomes; assay: Neurotoxicity: synaptosomal viability (MTT), substances applied alone; assay type: cell-based; conditions: 50 µM applied alone, 1 h, compared to control (untreated synaptosomes)
Procedure: as §1, §2, §3
After 1 h incubation with the substances and toxic agent, synaptosomes were centrifuged on a microcentrifuge for 1 min at 15,000× g. The pellet was mixed gently with buffer B + glucose, and the supernatant where 6-OHDA was discarded to prevent oxidation of MTT. Centrifuge again at 15,000× g for 1 min. After the second wash, buffer B + glucose was added to the pellet. To the ‘washed’ synaptosomes, 60 µL of MTT solution is added. The plates were incubated with the MTT solution at 37 °C for 10 min. After incubation, the samples were centrifuged at 15,000× g for 2 min. The excess liquid was removed, and a DMSO solution was used to dissolve the formed formazan crystals. After dissolution, the amount of formazan is measured spectrophotometrically at λ = 580 nm.

[6] = pH 7.4, 50 µM, 4 h, 25 °C; Pe calculated in 10^−6 cm/s, presented as −logPe
[7] = tested on: isolated rat brain mitochondria; assay: t-BuOOH-induced oxidative stress model: GSH level; conditions: 50 µM in combination with t-BuOOH (75 µM), compared to the toxic agent
[8] = tested on: isolated rat brain synaptosomes; assay: Neurotoxicity: reduced glutathione (GSH) level in synaptosomes, substances applied alone; assay type: cell-based; conditions: 50 µM applied alone, 1 h, compared to control
Procedure: as §1, §2, §3, §4

[9] = tested on: isolated rat brain mitochondria; assay: t-BuOOH-induced oxidative stress model: MDA production; conditions: 50 µM in combination with t-BuOOH (75 µM), compared to the toxic agent
[10] = molecular target: T1, human recombinant MAOB enzyme (hMAOB) (Homo sapiens, UniProt P27338); assay: Human recombinant MAOB enzyme activity (fluorometric, Amplex Red); assay type: biochemical; conditions: for inhibition at 1 µM: compared to control (pure hMAOB); for IC50: read-out: IC50 (EC50), (µM ± SD) hMAOB;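 as to all read-outs here: tyramine as substrate, H2O2 formation detected by horseradish peroxidase coupled Amplex Red fluorescence read at 570 and 690 nm, compounds incubated with enzyme 30 min at 37 °C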
T1 sequence (P27338 1-520): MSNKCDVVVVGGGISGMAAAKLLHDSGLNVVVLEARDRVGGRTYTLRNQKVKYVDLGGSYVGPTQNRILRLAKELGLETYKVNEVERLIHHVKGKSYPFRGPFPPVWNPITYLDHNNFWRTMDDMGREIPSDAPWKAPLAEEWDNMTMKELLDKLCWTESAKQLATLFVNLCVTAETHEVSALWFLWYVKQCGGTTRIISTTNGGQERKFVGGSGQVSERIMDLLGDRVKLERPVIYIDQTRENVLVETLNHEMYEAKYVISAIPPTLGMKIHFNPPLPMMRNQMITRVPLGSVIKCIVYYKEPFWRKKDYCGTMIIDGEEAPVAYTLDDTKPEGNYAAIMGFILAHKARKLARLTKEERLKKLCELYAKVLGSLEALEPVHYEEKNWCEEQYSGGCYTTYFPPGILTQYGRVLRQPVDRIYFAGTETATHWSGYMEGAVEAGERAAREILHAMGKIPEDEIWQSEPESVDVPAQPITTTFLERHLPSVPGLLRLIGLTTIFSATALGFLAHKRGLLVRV

[11] = molecular target: T2, human recombinant MAOA enzyme (hMAOA) (Homo sapiens, UniProt P21397); assay: Human recombinant MAOA enzyme activity (fluorometric, Amplex Red); assay type: biochemical; conditions: read-out: IC50 (EC50), (µM ± SD) hMAOA
T2 sequence (P21397 1-527): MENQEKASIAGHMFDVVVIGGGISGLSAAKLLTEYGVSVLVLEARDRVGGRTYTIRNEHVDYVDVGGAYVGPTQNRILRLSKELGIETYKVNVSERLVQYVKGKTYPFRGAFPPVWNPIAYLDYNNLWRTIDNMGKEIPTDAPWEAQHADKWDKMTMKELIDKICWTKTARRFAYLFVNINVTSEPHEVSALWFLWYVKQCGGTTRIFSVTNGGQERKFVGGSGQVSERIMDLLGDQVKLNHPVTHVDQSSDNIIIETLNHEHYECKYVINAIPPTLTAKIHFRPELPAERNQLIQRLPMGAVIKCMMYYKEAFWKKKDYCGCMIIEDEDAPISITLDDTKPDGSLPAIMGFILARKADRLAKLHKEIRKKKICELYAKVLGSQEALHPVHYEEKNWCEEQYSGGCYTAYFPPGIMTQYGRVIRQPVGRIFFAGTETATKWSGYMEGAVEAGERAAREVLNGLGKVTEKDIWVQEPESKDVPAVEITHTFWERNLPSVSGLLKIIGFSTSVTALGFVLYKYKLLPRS

[12] = tested on: isolated rat brain mitochondria; assay: Neurotoxicity: MDA production in brain mitochondria, substances applied alone; assay type: cell-based; conditions: 50 µM applied alone, compared to control
Procedure: as §1, §2, §3
To the mitochondria was added 0.3 mL of 0.2% thiobarbituric acid and 0.25 mL of sulfuric acid (0.05 M), and the mixture was boiled for 30 min. After boiling, the tubes were placed on ice, and 0.4 mL of n-butanol was added to each, then centrifuged at 3500× g for 10 min. The amount of MDA was determined spectrophotometrically at 532 nm.

[13] = tested on: isolated rat brain mitochondria; assay: Neurotoxicity: GSH level in brain mitochondria, substances applied alone; assay type: cell-based; conditions: 50 µM applied alone, compared to control
Procedure: as §1, §2
[…]. After centrifugation of the homogenate at 6000× g, a 0.04% solution of DTNB was added to the supernatant to give a yellow color, the determination being spectrophotometric at 412 nm.

| PAMPA BBB −logPe [6] | SI: hMAOB selectivity index = IC50(hMAOA)/IC50(hMAOB) [10] | inhibition at 1 µM [10] | IC50 [10] | IC50 [11] | Compound | decrease in GSH level by toxic agent alone ([1]; toxic agent applied alone at 150 µM, compared to control) | decrease in synaptosomal viability by toxic agent alone [2] | decrease of MDA production [3] | increase of MDA production [4] | decrease of synaptosomal viability [5] | preservation of GSH level [7] | decrease of glutathione (GSH) level [8] | preservation of GSH level [1] | reduction of MDA production [9] | increase of MDA production [12] | decrease of GSH level [13] |
| --- | --- | --- | --- | --- | --- | --- | --- | --- | --- | --- | --- | --- | --- | --- | --- | --- |
|  |  |  |  |  | NCCc1cc(O)c(O)cc1O [6-OHDA, 6-hydroxydopamine, reference compound] | 50% | 50% |  |  |  |  |  |  |  |  |  |
| 4.631 ± 0.047 | >123 | 20% | 0.814 ± 0.2 µM | > 100 µM | CCOC(=O)c1cc(-c2ccc(Br)cc2)n(CCC(=O)NN=Cc2ccc([N+](=O)[O-])cc2)c1C [8c] |  |  | 27% | 60% | 30% | 40% | 25% | 50% | 5% | 66% | 25% |
| 4.464 ± 0.026 and 4.464 | >204 | 45% | 0.49 ± 0.09 µM | > 100 µM | CCOC(=O)c1cc(-c2ccc(Br)cc2)n(CCC(=O)NN=Cc2cc(OC)c(O)c(OC)c2)c1C [8d] |  |  | 54% | 30% | 20% | 80% | 15% | 70% | 38% | 40% | 15% |
| 5.714 and 5.714 ± 0.041 | >122 | 20% | 0.817 ± 0.09 µM | > 100 µM | CCOC(=O)c1cc(-c2ccc(Br)cc2)n(CCC(=O)NN=Cc2ccc(OC)cc2OC)c1C [8e] |  |  | 25% | 63% | 35% | 60% | 20% | 50% | 11% | 69% | 25% |
